Patent publication US9512121B2, “[1,2,4] triazol [4,3-A] pyridine derivative, preparation method therefor or medical application thereof” (Jiangsu Hansoh Pharmaceutical Co., Ltd., priority 2013, dated 2016)

Tests used:
[1] = Pharmacokinetic test in rats after intragastric administration (LC/MS/MS of plasma); format: in vivo, Sprague-Dawley (SD) rats; settings: SD rats, protocol 10.0 mg/kg; for Vd/F / AUC / CL/F / half-life / MRT / Cmax: both sexes, Sprague-Dawley, rat, plasma, po; for Vd/F: read-out: Apparent Distribution Volume Vz/F; for AUC: read-out: Area Under Curve AUC; for CL/F: read-out: Clearance CL/F; for half-life: read-out: Half life t1/2 (converted); for MRT: read-out: Mean Residence Time MRT; for Cmax: read-out: Plasma Conc. Cmax
Method: Rats were used as test animals. A LC/MS/MS method was used to determine drug concentration in plasma at different time points after the rats were administered the compounds of Examples 3, 22 and 28 intragastrically. The pharmacokinetic behavior of the compounds of the present invention was studied and evaluated in rats.
Eight healthy adult Sprague-Dawley (SD) rats, half male and half female, were divided into 2 groups with 4 rats in each group. The animals were purchased from SINO-BRITISH SIPPR/BK LAB. ANIMAL LTD., CO, Certificate No.: SCXK (Shanghai) 2008-0016.
A certain amount of test compounds was weighed. 1.0 mL of dimethyl sulfoxide was added to dissolve the compounds. Normal saline was added to prepare a 1.0 mg/mL solution. The concentration of DMSO was kept at 5%. […]
Compounds of Example 3, 22 and 28 were administered intragastrically to rats. Blood samples (0.1 mL) were taken from the orbital sinus before the administration, and at 0.5, 1.0, 2.0, 3.0, 4.0, 6.0, 8.0, 12.0, 24.0, and 36.0 hours after administration. The blood sample was placed in a heparinized tube, and then centrifuged for 10 minutes at 4° C., at 10000 rpm to separate blood plasma. The plasma samples were stored at −20° C. The rats were fed 2 hours after compound administration.
Content determination of the test compounds in rat plasma after intragastrically administering at different concentrations: 50 μL of rat plasma taken at various time points after administration were mixed with 50 μL of internal standard solution and 100 μL of methanol, and mixed for 3 minutes by a vortexer. The mixture was centrifuged for 10 minutes at 13,500 rpm. 10 μL of the supernatant were taken from the plasma sample and analyzed by LC-MS/MS.

[2] = cited from earlier work
[3] = system: hepatocellular carcinoma cell lines HCCLM3, MHCC97-H, MHCC97-L, and stomach cancer cell lines SNU5, MKN-45; assay: Growth inhibition of cancer cell lines (CellTiter-Glo, 72 hours); settings: read-out: Half inhibitory concentration (IC50), cell activity
Method: The purpose is to measure the growth inhibition effect of the compound on hepatocellular carcinoma cell lines HCCLM3, MHCC97-H, MHCC97-L, and stomach cancer cell lines SNU5, MKN-45.
The positive control and the test compounds were firstly dissolved in 100% dimethyl sulfoxide to prepare a 20 mM stock solution, which was stored at −20° C. in a refrigerator. Before the experiment, the above stock solution was diluted with culture medium containing 0.6% dimethyl sulfoxide to prepare a 20× fold solution for each test concentration.
(1) To each well of 96-well plate was added 100 μl culture medium containing 2000 cells (HCCLM3/MHCC97-H/MHCC97-L was cultured in DMEM plus 10% FBS; SNU5 was cultured in IMDM plus 10% FBS; and MKN45 was cultured in RPMI1640 plus 10% GFBS). The plate was incubated in a 5% CO2 incubator overnight.
(2) 20 μl diluted positive control or test compounds were added to each well, with two duplicate wells for each dilution. To the blank well and the control well were each added 20 μl culture medium containing 0.6% dimethyl sulfoxide. […]
(5) BioTek microplate reader was used to measure the luminescence signal of each well.
(6) Using GraphPad software, a non-linear regression curve was generated based on the inhibition ratio as a function of the concentration of the compounds. The IC50 was calculated using a S-shaped dose-effect curve fitting.

c-MET tyrosine kinase = c-MET tyrosine kinase (Homo sapiens (Human), UniProt P08581); assay: c-MET tyrosine kinase enzyme activity (inhibition of phosphorylation, fluorescence); settings: read-out: Half inhibitory concentration (IC50) on the receptor tyrosine kinase c-MET, enzyme activity
c-MET tyrosine kinase, sequence (P08581 25-1390): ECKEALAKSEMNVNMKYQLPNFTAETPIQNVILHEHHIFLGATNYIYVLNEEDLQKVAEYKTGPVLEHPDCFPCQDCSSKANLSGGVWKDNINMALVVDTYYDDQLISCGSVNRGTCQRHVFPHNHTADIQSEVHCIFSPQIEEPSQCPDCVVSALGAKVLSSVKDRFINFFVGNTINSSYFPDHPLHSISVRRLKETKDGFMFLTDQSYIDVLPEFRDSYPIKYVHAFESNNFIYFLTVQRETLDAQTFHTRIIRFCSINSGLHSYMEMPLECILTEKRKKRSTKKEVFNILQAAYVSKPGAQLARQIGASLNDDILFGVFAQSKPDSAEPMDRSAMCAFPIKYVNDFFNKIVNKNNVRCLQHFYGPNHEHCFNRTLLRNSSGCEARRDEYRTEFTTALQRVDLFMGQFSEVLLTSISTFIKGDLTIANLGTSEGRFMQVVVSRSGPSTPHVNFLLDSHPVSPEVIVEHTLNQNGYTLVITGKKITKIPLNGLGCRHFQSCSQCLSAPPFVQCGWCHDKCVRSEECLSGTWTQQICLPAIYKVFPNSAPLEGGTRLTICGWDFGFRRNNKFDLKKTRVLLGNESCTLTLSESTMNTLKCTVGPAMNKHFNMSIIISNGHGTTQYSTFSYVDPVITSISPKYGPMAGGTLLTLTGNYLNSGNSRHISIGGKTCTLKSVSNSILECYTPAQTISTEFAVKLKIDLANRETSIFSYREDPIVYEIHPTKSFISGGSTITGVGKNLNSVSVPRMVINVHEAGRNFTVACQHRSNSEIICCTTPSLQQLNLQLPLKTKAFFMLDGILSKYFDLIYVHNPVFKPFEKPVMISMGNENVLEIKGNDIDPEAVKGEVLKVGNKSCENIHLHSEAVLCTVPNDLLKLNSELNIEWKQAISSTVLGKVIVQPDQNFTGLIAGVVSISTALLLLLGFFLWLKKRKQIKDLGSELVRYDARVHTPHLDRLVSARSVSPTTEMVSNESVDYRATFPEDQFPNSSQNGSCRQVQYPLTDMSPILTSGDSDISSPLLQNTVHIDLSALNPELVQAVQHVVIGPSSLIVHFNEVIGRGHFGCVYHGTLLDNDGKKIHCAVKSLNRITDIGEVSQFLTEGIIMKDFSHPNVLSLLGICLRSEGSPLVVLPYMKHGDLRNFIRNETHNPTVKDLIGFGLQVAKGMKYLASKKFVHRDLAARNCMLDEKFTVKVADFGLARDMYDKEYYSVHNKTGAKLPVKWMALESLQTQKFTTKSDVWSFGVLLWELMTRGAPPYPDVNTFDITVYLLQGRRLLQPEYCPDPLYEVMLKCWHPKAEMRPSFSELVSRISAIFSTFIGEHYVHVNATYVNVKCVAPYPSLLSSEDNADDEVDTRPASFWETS
Method: The average inhibition rate of kinase and IC50 values were determined by a NovoStar microplate reader (BMG Co., Germany).
The purpose is to study the effect of the compounds on c-MET tyrosine kinase activity at the molecular level. IC50 values were calculated from the data of the inhibition rates of the compounds on c-MET tyrosine kinase phosphorylation at various concentrations, thereby evaluating the compounds.
The positive control and the test compounds were first dissolved in 100% dimethyl sulfoxide to prepare a 20 mM stock solution, which was stored at −20° C. in a freezer.
Just before the experiment, the above stock solution was diluted to a final concentration of 4% in dimethyl sulfoxide.
According to the need of dilution ratio, endonuclease was diluted in display buffer B.
All of the compounds were diluted within a 96-well plate.
The plate was incubated at room temperature for 1 hour.
5 μL display buffer were added, and the plate was incubated at room temperature for another 1 hour.
Using GraphPad software, a non-linear regression curve was generated based on the inhibition ratio as a function of the concentration of the compounds. The IC50 was calculated using a S-shaped dose-effect curve fitting.

Vd/F [1] [L/kg] | AUC [1] [ng·h/mL] | CL/F [1] [mL/min/kg] | half-life [1] [h] | MRT [1] [h] | Cmax [1] [ng/mL] | IC50 [3] [nM] | IC50 (c-MET tyrosine kinase) [nM] | SMILES | outcome of clinical trials (toxicity) [2] | further results
0.667 ± 0.087 | 79300 ± 40700 | 1.33 ± 0.76 | 7.54 ± 4.56 | 11.6 ± 5.8 | 5000 ± 957 | – | – | Cn1cc(-c2cc(F)c3nnc(Sc4ccc5ncc6c(c5c4)OCCO6)n3c2)cn1 [Example 3, 9-((8-fluoro-6-(1-methyl-1H-pyrazol-4-yl)-[1,2,4]triazolo[4,3-a]pyridin-3-yl)thio)-2,3-dihydro-[1,4]dioxino[2,3-c]quinoline] | – | –
– | – | – | – | – | – | – | – | Cn1cc(-c2ccc3nnc(C(F)(F)c4ccc5ncccc5c4)n3n2)cn1 [JNJ-38877605, reference compound] | discontinued in clinical trials due to renal toxicity | Apparent Distribution Volume Vz/F [1]: 1.48 ± 0.613 L/kg; Area Under Curve AUC [1]: 17325 ± 9505 ng·h/mL; Clearance CL/F [1]: 5.81 ± 2.54 mL/min/kg; Half life t1/2 [1]: 2.97 ± 0.25 h; Mean Residence Time MRT [1]: 4.90 ± 0.62 h; Plasma Conc. Cmax [1]: 2373 ± 1444 ng/mL
1.13 ± 0.79 | 30900 ± 25500 | 4.06 ± 2.4 | 3.13 ± 0.54 | 5.17 ± 0.95 | 3600 ± 1820 | – | – | Cn1cc(-c2ccc3nnc(Sc4ccc5ncc(N6CCOCC6)c(F)c5c4)n3c2)cn1 [Example 28, 4-(4-fluoro-6-((6-(1-methyl-1H-pyrazol-4-yl)-[1,2,4]triazolo[4,3-a]pyridin-3-yl)thio)quinolin-3-yl)morpholine] | – | –
0.327 ± 0.037 | 122000 ± 13900 | 0.686 ± 0.071 | 5.55 ± 0.78 | 9.1 ± 0.85 | 8630 ± 592 | 2 | 2.9 | CN1C(=O)COc2c1cnc1ccc(Sc3nnc4c(F)cc(-c5cnn(C)c5)cn34)cc21 [Example 22, 9-((8-fluoro-6-(1-methyl-1H-pyrazol-4-yl)-[1,2,4]triazolo[4,3-a]pyridin-3-yl)thio)-4-methyl-2H-[1,4]oxazino[3,2-c]quinolin-3(4H)-one] | – | –
– | – | – | – | – | – | > 1000 | > 1000 | CN1C(=O)COc2c1cnc1ccc(Sc3nnc4c(OC(F)F)cc(-c5cnn(C)c5)cn34)cc21 [Example 13, 9-((8-(difluoromethoxy)-6-(1-methyl-1H-pyrazol-4-yl)-[1,2,4]triazolo[4,3-a]pyridin-3-yl)thio)-4-methyl-2H-[1,4]oxazino[3,2-c]quinolin-3(4H)-one] | – | –
– | – | – | – | – | – | – | – | Cn1cc(-c2ccc3nnc(Sc4ccc5ncccc5c4)n3n2)cn1 [SNG-523] | discontinued in clinical trials due to renal toxicity | –
